Source: article PMC12656546, “Enterohepatic Recirculation-Mediated Reabsorption of Aristolochic Acid I: Revealed by Toxicokinetics and Metabolite Identification in Rats” (Toxics, 2025)
Where two headings read alike, the source gives them in different places.

Tests used:
[1] = Qualitative analysis of AAI and metabolites in bile of bile duct-cannulated rats; format: in vivo, F344 rats; conditions: 30 mg/kg AAI oral, bile collected 0–3 h, 3–6 h, 6–9 h, 9–12 h, qualitative UHPLC-Q-Exactive
Description: Ten 6-week-old F344 rats were divided into a control group (n = 2) and a treatment group (n = 8), with equal numbers of males and females in each group. During the experiment, rats were fasted and had access to water ad libitum. Rats in the control group were administered with 0.5% CMC-Na suspension via gastric gavage. For the treatment group, rats were administered with 30 mg/kg of AAI by the same route. Rats underwent bile duct cannulation for bile sample collection. Bile samples were collected at consecutive intervals of 0–3 h, 3–6 h, 6–9 h and 9–12 h after administration.
For each bile sample, a 200 μL aliquot of bile was mixed with an equal volume of a methanol/acetonitrile (1:1, v/v) solution. After vortexing for 2 min, the mixture was centrifuged at 13,200 rpm for 10 min. The precipitate was discarded, and the supernatant was dried under nitrogen gas. The dried residue was reconstituted in 80 μL of methanol, vortexed for 2 min, and centrifuged at 13,200 rpm for 15 min. The resulting supernatant was used for further analysis.
Ultra-high-performance liquid chromatography (UHPLC) coupled with a Q-Exactive orbitrap mass spectrometer (Thermo Fisher Scientific, San Jose, CA, USA) was used to analyzed the metabolites of AAI in rat bile. An ACQUITY UPLC BEH C18 column (2.1 mm × 50 mm, 1.7 μm, Waters, Milford, MA, USA) was employed for chromatographic separation. The mobile phase consisted of water containing 5 mmol/L ammonium formate/0.1% formic acid (A) and acetonitrile (B).
Metabolites in bile samples were analyzed using electrospray ionization (ESI) in both positive and negative ion modes. The spray voltage was set at 3500 V for positive mode and 3000 V for negative mode. The ion transfer tube temperature was maintained at 350 °C with a vaporizer temperature of 300 °C. The sheath gas and auxiliary gas flow rates were 35 Arb and 10 Arb. Full-scan MS data were acquired at a resolution of 35,000 within the mass range of m/z 100–1200. For MS/MS analysis, data-dependent acquisition (DDA) was performed at a resolution of 17,500 using high-energy collision dissociation (HCD). Post-acquisition data was imported into Compound Discoverer 2.1 software to identify AAI metabolites. Blank matrices were processed alongside samples to exclude the background interferences.

Caco-2 monolayers = conditions: cited from earlier work
[2] = Stability of AAI in rat plasma samples (QC samples); format: in vitro ADME; conditions: n = 3
Description: A full validation of the bioanalytical method for the quantitative analysis of AAI in rat plasma was performed in inherence to the ICH M10 guideline. Selectivity, accuracy and precision, matrix effects, calibration curve and range, dilution integrity and stability were fully validated. The analyzed QCs included a lower limit of quantitation (LLOQ) sample, low QC (LQC), medium QC (MQC) and high QC (HQC). QCs of four concentration levels (LLOQ: 1 ng/mL; LQC: 3 ng/mL; MQC: 400 ng/mL; HQC: 800 ng/mL) were prepared by spiking AAI with blank plasma collected from 6 rats.
Stability evaluation was carried out by analyzing LQCs and HQCs after storage under different conditions. Freeze–thaw stability was assessed after 3 cycles of freezing and thawing. Short-term stability was tested by keeping the LQCs and HQCs on the bench top at room temperature for the same duration as the study samples. Stability of the analyte in processed samples was tested by placing the processed samples in an autosampler for 16 h. Long-term stability was assessed by storing LQCs and HQCs at −20 °C for 15 days. The mean concentration at each QC level should be within ±15% of the nominal concentration.

[3] = nine months after a single administration of AAI, cited from earlier work
[4] = Freeze–thaw stability (3 cycles), rat plasma, nominal conc. 3 ng/mL
[5] = Freeze–thaw stability (3 cycles), rat plasma, nominal conc. 800 ng/mL
[6] = Long-term stability (−20 °C, 15 days), rat plasma, nominal conc. 3 ng/mL
[7] = Long-term stability (−20 °C, 15 days), rat plasma, nominal conc. 800 ng/mL
[8] = Post-processing stability (processed samples in autosampler 16 h), nominal conc. 3 ng/mL
[9] = Post-processing stability (processed samples in autosampler 16 h), nominal conc. 800 ng/mL
[10] = Short-term stability (bench top, room temperature), rat plasma, nominal conc. 3 ng/mL
[11] = Short-term stability (bench top, room temperature), rat plasma, nominal conc. 800 ng/mL

Structure (SMILES): COc1cccc2c1cc([N+](=O)[O-])c1c(C(=O)O)cc3c(c12)OCO3 [AAI, Aristolochic acid I]
- detection in bile (biliary excretion) [1]: detected in bile collected during 0–3 h and 3–6 h intervals post-administration
- passive diffusion ability across Caco-2 monolayers (Caco-2 monolayers): moderate passive diffusion ability
- Accuracy (%Dev) [2, 4]: 4.10 %Dev
- Mean Calculated Conc. [2, 4]: 3.12 ng/mL
- Accuracy (%Dev) [2, 5]: 1.30 %Dev
- Mean Calculated Conc. [2, 5]: 810.42 ng/mL
- Accuracy (%Dev) [2, 6]: 6.54 %Dev
- Mean Calculated Conc. [2, 6]: 3.20 ng/mL
- Accuracy (%Dev) [2, 7]: 4.71 %Dev
- Mean Calculated Conc. [2, 7]: 837.66 ng/mL
- Accuracy (%Dev) [2, 8]: −10.53 %Dev
- Mean Calculated Conc. [2, 8]: 2.68 ng/mL
- Accuracy (%Dev) [2, 9]: −11.83 %Dev
- Mean Calculated Conc. [2, 9]: 705.33 ng/mL
- Accuracy (%Dev) [2, 10]: 3.46 %Dev
- Mean Calculated Conc. [2, 10]: 3.10 ng/mL
- Accuracy (%Dev) [2, 11]: −2.99 %Dev
- Mean Calculated Conc. [2, 11]: 776.07 ng/mL
- mice developing liver cancer ([3]; female mice): 41.67%
- mice developing liver cancer ([3]; male mice): 78.57%
